Consider two molecules from patent US20240408071A1, “NOVEL COMBINATION OF SEROTONIN RECEPTOR (5-HTR2B) ANTAGONIST AND AN IMMUNOMODULATOR AND CHEMOTHERAPEUTIC DRUGS FOR INHIBITION OF CANCER” (NATIONAL CENTRE FOR CELL SCIENCE, priority 2021, published 2024).

Entries after “also recorded” stand apart in the source; their conditions may differ.

The subject of one test is MC38 colon cancer cells. The test can be described thus: MC38 colon tumor growth (tumor volume) in C57BL/6 mice. The test is classed as in vivo.
In test [1] the test system is PD-L1. The test is described as follows: PD-L1 expression on MC38 cells in vitro (flow cytometry, mRNA). The test is classed as cell-based, mouse. Particulars: BW-723C86 50 μM, serotonin 100 μM, RS-127445 50 μM, 72 hours (mRNA 48 hours) (FIG. 13A-E). The method, then: (§1) FIG. 13 depicts 5-HTR2B signaling promotes PD-L1 expression on the MC38 cell line in vitro: (A-B) MC38 cells are treated with 5-HTR2B agonist (BW-723C86-50 μM), serotonin (100 μM), and 5-HTR2B antagonist (RS-127445-50 μM) for 72 hours, and the PD-L1 expression was checked by flow cytometry and the percentage of PD-L1^+ MC38 cells was plotted. (C-D) MFI of PD-L1 from the above experiment were plotted as histogram overlay (C) or as statistical data points (D). (E) Relative PD-L1 mRNA expression in MC38 cells following BW-723C86 and RS-127445 treatment for 48 hours. Here the values are shown as a fold change as compared to control MC38 cells. (F) Serum PD-L1 level was measured by ELISA of naïve C57BL/6J mice, control MC38 tumor-bearing mice, BW-723C86 (5 mg/kg/day) treated MC38 tumor-bearing mice and RS-127445 (5 mg/kg/day) treated MC38 tumor-bearing mice after 14 days of tumor inoculation. All the statistical analysis was performed using either Student's ‘t’ test or two-way ANOVA using Sidak's multiple comparison test. *P<0.05; **P<0.01; […]; ****P<0.0001 Error bar represents mean±standard error of means (SEM).
(§2) To understand it, investigations were done on whether 5-HTR2B signaling also affects the surface expression of molecules that alters inflammatory and cytotoxic immune cells. Among different molecules, PD-L1 is of particular interest as it is an immune checkpoint ligand that affects cytotoxic T-cell responses toward cancer. […] (FIG. 13F).
A general note: In flow cytometry, cells or beads pass a laser one at a time.

Test [2] concerns PD-L1. The test can be described thus: Serum PD-L1 ELISA in MC38 tumor-bearing mice. Particulars: MC38 tumor-bearing mice, 5 mg/kg/day, 14 days after tumor inoculation (FIG. 13F). It counts as in vivo, C57BL/6J mice. The method, then:
as §1, with “(F) Serum PD-L1 level was measured by ELISA of naïve C57BL/6J mice, control MC38 tumor-bearing mice, BW-723C86 (5 mg/kg/day) treated MC38 tumor-bearing mice and RS-127445 (5 mg/kg/day) treated MC38 tumor-bearing mice after 14 days of tumor inoculation.” left out
Universal competitive serotonin ELISA kit was purchased from Novus biological (Catalog #NBP2-68127), and ELISA was performed according to the manufacturer's protocol. Mouse PD-L1 DuoSet ELISA kit was procured from the R&D System (Catalog #DY1019-05), and the ELISA was performed according to the manufacturer's guidelines.
as §2
(In general: ELISA stands for enzyme-linked immunosorbent assay.)

Experimental for MC38 colon cancer cells: Tumor volumes were measured and plotted. (B) MC38 colon cancer cells were injected subcutaneously into the right flank of C57BL/6 mice. After seven days when tumors became palpable, one group was treated with 5-HTR7 antagonist SB-269970 (n=6 mice; 3 mg/kg/day) or left untreated (n=6 mice). Tumor volume was measured and plotted. (C) After seven days of the setting of tumor growth, one group was treated with a serotonin transporter blocker (SSRI) sertraline hydrochloride (n=6 mice; 15 mg/kg/week) or left untreated (n=6 mice). Tumor volume was measured and plotted. (D) C57BL/6 mice were given subcutaneously injected MC38 cells. After seven days of tumor growth, one group of mice was treated with different doses of 5-HTR2B antagonist SB-215505 (n=6). Tumor volume was measured and plotted. (E) C57BL/6 mice were given subcutaneously injected MC38 cells. After seven days of the tumor growth, one group of mice was treated with different doses of 5-HTR2B antagonist SB-215505 (n=6), one group treated with 5-HTR2B agonist BW-723C86 (n=6; 4 mg/kg/day). Tumor volume was measured and plotted. (F) MC38 cells were subcutaneously injected into C57BL/6 mice. After seven days when the tumor became palpable in mice, one group of mice was treated with FDA-approved 5-HTR2B antagonist cariprazine (Carispec; Sun pharma) via oral gavage (n=5 mice; dose 5 mg/kg body weight/day) or left untreated (n=5 mice). Tumor growth was measured and plotted. […] All the statistical analysis was performed using Student's ‘t’ test or two-way ANOVA using Sidak's multiple comparison test. *P<0.05; **P<0.01; ***P<0.00; ****P<0.0001 Error bar represents mean±standard error of means (SEM).

Turning to `CC(N)Cc1c[nH]c2ccc(OCc3cccs3)cc12` (centres unmarked) [BW-723C86], the MC38 tumor growth entry with MC38 colon cancer cells (5-HTR2B agonist 4 mg/kg/day (FIG. 7E)) is listed as “significantly promotes MC38 tumor growth”. Also, the “expression of PD-L1 in the colon cancer cells” value in the test on PD-L1 [1] was “increased the expression of PD-L1”. For the same molecule, the “circulating free PD-L1 in the serum” value in the test on PD-L1 [2] is “increased the circulating free PD-L1 in the serum”.

For the molecule `CC(C)c1cc(-c2ccc(F)c3ccccc23)nc(N)n1` [RS-127445], the MC38 tumor growth result with MC38 colon cancer cells (4 mg/kg/day from day 7 after inoculation, vs untreated (FIG. 7A)) is “efficiently control the tumor growth; also recorded: potent molecule in reducing the tumor burden”. Further, the “effect in controlling tumor growth compared to SB-215505” value with MC38 colon cancer cells (MC38 tumor, equivalent dose) is given as “even more potent effect in controlling tumor growth”. Moreover, the “tumor growth, combination with 5-Fluorouracil” value in the test with MC38 colon cancer cells (RS-127445 2 mg/kg/day + 5-Fluorouracil 10 mg/kg/alternate days, MC38 model (FIG. 16B)) is on record as “much better response by reducing tumor growth than any of them alone”. In the test with MC38 colon cancer cells (RS-127445 2 mg/kg/day + Irinotecan 15 mg/kg/day for 5 days, subcutaneous colon cancer model (FIG. 16D)), the “efficacy of combination with Irinotecan” value was “significantly enhanced the efficacy of irinotecan or RS-127445 alone”. Also, in the test with MC38 colon cancer cells (RS-127445 2 mg/kg/day + Oxaliplatin 4 mg/kg/day for 5 days, subcutaneous colon cancer model (FIG. 16C)), the “efficacy of combination with Oxaliplatin” value is listed as “significantly enhanced the efficacy of oxaliplatin or RS-127445 alone”. Further, the “efficacy of combination with trifluorothymidine” value in the test on MC38 colon cancer cells (RS-127445 2 mg/kg/day + trifluorothymidine 20 mg/kg/day (FIG. 16E)) is given as “not found any significant alterations in the efficacy”. In addition, the “expression of PD-L1 in the colon cancer cells” value in the test on PD-L1 [1] is “reduced the expression of PD-L1”. For the same molecule, the “circulating free PD-L1 in the serum” value with PD-L1 [2] is listed as “diminished”.
